Test results: US5871946A, “Method for determining activity of enzymes in metabolically active whole cells” (priority 1995, dated 1999)
Numbered stars: 1 amine (or outer) side, 2 acyl side, 3 side chain; on linkers, the order of the positions; unused ones are H or OH. Bridge positions count the residues as written; N and C are the ends. Peptide text beside a SMILES is read from it. I, II: the chains in the order shown. Rhodamine110 = O=C1OC2(c3ccc(N[*:1])cc3Oc3cc(N[*:2])ccc32)c2ccccc21

Columns and labels:
Assay type in all cases: cell-based, human
MONOCYTES = experiment: Disease to normal ratio of enzyme activity, monocytes (Table 5)
Source text: (§1) A normal in house adult donor pool was drawn, recording sex and determining that no known disease state was present at the time of sample draw. Criteria for rejecting samples included patients under medication, patients with infection or inflammation of any type, colds and flu as well as any known medical illness such as cancer, heart ailment and high blood pressure. A donor list of 75 patients has been developed and a mean and 2 sd range established. A subgroup of "super normals" was developed from this list by examining the 75 patients to determine which group falls closest to the mean for all enzymes in all cell types tested. These patients were used as the "wellness index" or best group of "normalcy" patients. If a study required the use of children or newborns then this same format was used to develop a data base for these age groups.

LYMPHOCYTES = experiment: Disease to normal ratio of enzyme activity, lymphocytes (Table 5)
Source text: as §1

[1] = test system: cells of normals and HIV + patients; experiment: Substrate panel in cells of normals and HIV+ patients, possible TB infection (Table 4)
Experimental: A panel of assay compounds are assembled consisting of Ala-aminopeptidase and Lys-aminopeptidase, Dipeptidyl peptidase IV (Ala-Ala)2 rhodamine 110 and Cathepsin D to indicate possible TB infection in AIDS related cases.
A panel of enzymatic substrates is performed consisting of Ala-aminopeptidase and Lys-aminopeptidase, Dipeptidyl peptidase IV (Ala-Ala)2 rhodamine 110 and Cathepsin D to indicate possible TB infection in AIDS related cases.

[2] = Inflam. Bowel Dis., monocytes section

| Structure (SMILES) | Ratio of disease to normal (MONOCYTES; Dermatomyositis, monocytes) | Ratio of disease to normal (MONOCYTES; [2]) | Ratio of disease to normal (MONOCYTES; JRA, monocytes) | Ratio of disease to normal (MONOCYTES; Kawasaki's, monocytes) | Ratio of disease to normal (MONOCYTES; Lupus, monocytes) | Ratio of disease to normal (MONOCYTES; Rheumatic Fever, monocytes) | Ratio of disease to normal (LYMPHOCYTES; Dermatomyositis) | Ratio of disease to normal (LYMPHOCYTES; Inflam. Bowel Dis.) | Ratio of disease to normal (LYMPHOCYTES; JRA) | Ratio of disease to normal (LYMPHOCYTES; Kawasaki's) | Ratio of disease to normal (LYMPHOCYTES; Lupus) | Ratio of disease to normal (LYMPHOCYTES; Rheumatic Fever) | MEAN DELTA FL ([1]; HIV + PATIENTS) | MEAN DELTA FL ([1]; HIV + PATIENTS, listed as ALA--GLY*) | MEAN DELTA FL ([1]; NORMALS) | MEAN DELTA FL ([1]; NORMALS, listed as ALA--GLY*) |
| --- | --- | --- | --- | --- | --- | --- | --- | --- | --- | --- | --- | --- | --- | --- | --- | --- |
| C[C@H](NC(=O)CNC(=O)[C@H](Cc1ccccc1)NC(=O)CN)C(=O)Nc1ccc2c(c1)Oc1cc(NC(=O)[C@H](C)NC(=O)CNC(=O)[C@H](Cc3ccccc3)NC(=O)CN)ccc1C21OC(=O)c2ccccc21 [GFGA, (Gly-Phe-Gly-Ala)2 Rho 110] (I: H-GFGA / II: H-GFGA; linker I:C-II:C via Rhodamine110) | 2.01 | 3.42 | 2.29 | 1.77 | 2.18 | 1.36 | 2.14 | 2.16 | 2.03 | 2.15 | 1.25 | 2.14 |  |  |  |  |
| C[C@H](N)C(=O)NCC(=O)Nc1ccc2c(c1)Oc1cc(NC(=O)CNC(=O)[C@H](C)N)ccc1C21OC(=O)c2ccccc21 [ALA--GLY****] |  |  |  |  |  |  |  |  |  |  |  |  | 39.9 | 29.7 | 48.0 | 31.6 |
| N=C(N)NCCC[C@H](N)C(=O)NCC(=O)N[C@@H](CCC(=O)O)C(=O)N[C@@H](CO)C(=O)Nc1ccc2c(c1)Oc1cc(NC(=O)[C@H](CO)NC(=O)[C@H](CCC(=O)O)NC(=O)CNC(=O)[C@@H](N)CCCNC(=N)N)ccc1C21OC(=O)c2ccccc21 (stereo partly drawn) [RGES, (Arg-Gly-Glu-Ser)2 Rho 110] (I: H-RGES / II: H-RGES; linker I:C-II:C via Rhodamine110) | 5.22 | 6.02 | 3.98 | 4.65 | 3.03 | 6.52 | 2.06 | 1.96 | 1.43 | 1.43 | 1.84 | 2.04 |  |  |  |  |
| C[C@H](N)C(=O)Nc1ccc2c(c1)Oc1cc(NC(=O)[C@H](C)N)ccc1C21OC(=O)c2ccccc21 [ALA, (Ala)2 Rho 110] |  | 1.43 | 1.31 | 1.36 | 6.17 | 1.08 | 1.16 | 1.53 | 1.59 | 1.05 | 1.16 | 1.18 |  |  |  |  |
| CC(C)[C@H](N)C(=O)N[C@@H](CCCCN)C(=O)Nc1ccc2c(c1)Oc1cc(NC(=O)[C@H](CCCCN)NC(=O)[C@@H](N)C(C)C)ccc1C21OC(=O)c2ccccc21 [VK-M, (Val-Lys)2 Rho 110 (modified)] | 3.45 | 1.41 | 3.49 |  | 11.37 | 8.67 |  |  | 7.71 |  |  |  |  |  |  |  |
| NCC(=O)Nc1ccc2c(c1)Oc1cc(NC(=O)CN)ccc1C21OC(=O)c2ccccc21 [GLY, (Gly)2 Rho 110] | 1.01 | 1.84 | 1.11 | 3.83 |  | 2.06 |  | 1.97 |  | 1.94 | 1.64 | 2.09 |  |  |  |  |
| C[C@@H](O)[C@H](NC(=O)OCc1ccccc1)C(=O)N1CCC[C@H]1C(=O)Nc1ccc2c(c1)Oc1cc(NC(=O)[C@@H]3CCCN3C(=O)[C@@H](NC(=O)OCc3ccccc3)[C@@H](C)O)ccc1C21OC(=O)c2ccccc21 [Z-TP6.5, (carbobenzyloxycarbonyl-Thr-Pro)2 Rho 110 (pH 6.5)] | 3.12 | 2.83 | 8.33 |  | 2.29 | 5.37 | 3.87 | 3.03 | 2.89 | 5.85 |  | 7.19 |  |  |  |  |
| CC(=O)Oc1ccc2c(c1)Oc1cc(OC(C)=O)ccc1C21OC(=O)c2ccccc21 [FDA, fluorescein diacetate, reference compound] |  |  | 1.55 |  | 1.01 |  | 1.06 |  | 1.17 |  | 1.01 |  |  |  |  |  |
